Reference: US5843755A, “Group of antitumor compounds and method for producing the same” (Ajinomoto Co., Inc., priority 1996, dated 1998)
Converted amounts (≈) assume the structure as drawn.

Legend:
[1] = tested on: Mouse colon cancer cells (colon-26); assay: Anticancer effect on solid cancer, colon-26 transplanted subcutaneously to CDFI mice; type: in vivo; settings: cisplatin 5 mg/kg on 7th, 11th and 15th day
Experimental: Mouse colon cancer cells (colon-26) subcultured in vivo subcutaneously in a CDFI mouse were excised from the subcutaneous portion of the mouse. The cells were minced and transplanted subcutaneously with a trocar to CDFI mice (female, 4 weeks old) so that the concentration was 10 mg/mouse. The day of the transplantation was designated as 0th day. On 7th day, the tumor size and the body weight were measured, and the mice were classified into groups with n=4. The tumor size was calculated as a tumor weight in accordance with the following arithmetic expression. [formula]
FE399 which was obtained by drying up the acetonitrile solution of FE399-1 isolated by the method described in Example 1 under a reduced precondition was administered to the mice described above in accordance with the following schedule. FE399 was administered intraperitoneally in an administration amount of 0.2 mL/mouse. FE399 was dissolved in dimethyl sulfoxide (DMSO) so that the concentration was 100 mg/ml. The concentration was adjusted with physiological saline containing 5% Tween 80 so that the administration amount was 4 mg/kg or 8 mg/kg. […]
The anticancer effect was evaluated on the basis of the tumor enhancement inhibitory ratio (IR) calculated from the tumor weight. IR was determined in accordance with the following arithmetic expression. […]

Solubility = type: physicochemical
SW948 = assay: Growth-inhibiting action on various cells (MTT), SW948; type: cell-based; settings: 72 h, SW948, human colon cancer, 5 × 10^4 cells/ml, 3 days, read-out: IC50 (concentration at which cell proliferation is inhibited by 50%)
Experimental: (§1) The proliferation-inhibiting action of FE399 compounds obtained by purification, on various cells was measured under a condition shown below.
(§2) After that, FE399-P1 or FE399-P2 was added thereto at an appropriate concentration, followed by further cultivation for 3 days. However, as for P388 and K562, the FE399 compound group was added immediately after preparation of cell culture liquids. Each of the cultures was added with 10 μl of a solution of MTT (3-(4,5-dimethyl-2-thiazolyl)-2,5-diphenyl-2H-tetrazolium.Br, 5 mg/ml Dulbecco PBS(-)), followed by cultivation at 37° C. for 4 hours in the carbon dioxide gas incubator. After that, each of the cultures was added with 50 μl of 0.01N hydrochloric acid/20% SDS, and then the absorbance was measured at 570 nm by using a microplate reader (reference wavelength: 630 nm).

CHO-K1 = assay: Growth-inhibiting action on various cells (MTT), CHO-K1; type: cell-based; settings: Cricetulus griseus, 72 h, CHO-K1, Chinese hamster ovary fibroblast, 1.5 × 10^4 cells/ml, 3 days, read-out: IC50 (concentration at which cell proliferation is inhibited by 50%)
Experimental: as §1, §2

K562T = assay: Growth-inhibiting action on various cells (MTT), K562T; type: cell-based; settings: 72 h, human leukemia, 4 × 10^4 cells/ml, 3 days, read-out: IC50 (concentration at which cell proliferation is inhibited by 50%)
Experimental: as §1, §2

Colon26 = assay: Growth-inhibiting action on various cells (MTT), Colon26; type: cell-based; settings: Colon 26, 72 h, Colon26, mouse colon cancer, 5 × 10^4 cells/ml, 3 days, read-out: IC50 (concentration at which cell proliferation is inhibited by 50%)
Experimental: as §1, §2

P388 = assay: Growth-inhibiting action on various cells (MTT), P388; type: cell-based; settings: 72 h, P388, mouse leukemia, 2 × 10^4 cells/ml, 3 days, read-out: IC50 (concentration at which cell proliferation is inhibited by 50%)
Experimental: as §1, §2

[2] = Stability of the tautomers; type: physicochemical; settings: tautomeric equilibrium in organic solvent such as acetonitrile, chloroform, acetic acid

Row | Solubility (Solubility; in dimethyl sulfoxide, chloroform, ethyl acetate, methanol, and acetonitrile) | Solubility (Solubility; in pyridine and acetic acid) | Solubility (Solubility; in water) | IC50 (SW948) [µg/mL] | IC50 (K562T) [µg/mL] | IC50 (P388) [µg/mL] | Stability among the group of the compounds [2] | SMILES | IR (tumor enhancement inhibitory ratio) ([1]; 15th day) | IR (tumor enhancement inhibitory ratio) ([1]; 21st day) | IC50 (CHO-K1) [µg/mL] | IC50 (Colon26) [µg/mL]
1 |  |  |  |  |  |  |  | N.N.[Cl][Pt][Cl] [cisplatin] | 63 | 73 |  | 
2 | soluble | readily soluble | scarcely soluble | 0.15 (≈ 0.373 µM) | 0.31 (≈ 0.77 µM) | 0.36 (≈ 0.894 µM) | relatively stable | CCCC1CCCCCCCC(=O)NC2CSSCC(NC2=O)C(=O)O1 (centres unmarked) [FE399-P1] |  |  | 0.3 (≈ 0.745 µM) | 0.4 (≈ 0.994 µM)
